For one experiment, the system named is Zymoseptoria tritici. Kind of experiment: Leaf blotch of wheat (SEPTTR) disease control on wheat seedlings. Details: key to SEPTTR 1DP, HV activity at 100 ppm (% control rating) / SEPTTR 3DC, HV activity at 100 ppm (% control rating) / SEPTTR disease control, 1DP / SEPTTR disease control, 3DC / SEPTTR 1DP disease control rating, HV activity / SEPTTR 3DC disease control rating, HV activity / SEPTTR 3DC, LV activity at 125.1 g/H (% Control rating) / SEPTTR 1DP, LV activity at 125.1 g/H (% Control rating) / SEPTTR 1DP disease control rating, LV activity at 125.1 g/H / SEPTTR 3DC disease control rating, LV activity at 125.1 g/H / SEPTTR 3DC disease control rating, HV activity at 100 ppm / SEPTTR 1DP disease control rating, HV activity at 100 ppm / HV activity at 100 ppm SEPTTR 3DC (disease control rating) / HV activity at 100 ppm SEPTTR 1DP (disease control rating) / LV activity at 125.1 g/H SEPTTR 1DP (disease control rating) / LV activity at 125.1 g/H SEPTTR 3DC (disease control rating): A: > 80; B: ≤ 80; C: Not Tested; D: No Activity Observed in the Reported Assay. Conditions: for SEPTTR 1DP disease control rating, LV activity at 125.1 g/H / SEPTTR 3DC disease control rating, LV activity at 125.1 g/H / SEPTTR 1DP, LV activity at 125.1 g/H (% Control rating) / SEPTTR 3DC, LV activity at 125.1 g/H (% Control rating): low volume application; for SEPTTR 1DP, LV activity at 125.1 g/H (% Control rating) / SEPTTR 1DP disease control rating, HV activity: 1 Day Protectant; for SEPTTR 3DC, LV activity at 125.1 g/H (% Control rating) / SEPTTR 3DC disease control rating, HV activity: 3 Day Curative; for SEPTTR 1DP disease control rating, HV activity / SEPTTR 3DC disease control rating, HV activity: HV application at 100 ppm, wheat leaf blotch. It is filed as in vivo.

For the next experiment, the system named is Puccinia triticina. Kind of experiment: Wheat brown rust (PUCCRT) disease control on wheat seedlings. It is filed as in vivo. More on the design: key to PUCCRT 3DC, HV activity at 100 ppm (% control rating) / PUCCRT disease control, 3DC / PUCCRT 1DP disease control rating, HV activity / PUCCRT 3DC disease control rating, HV activity / PUCCRT 3DC, LV activity at 125.1 g/H (% Control rating) / PUCCRT 1DP, LV activity at 125.1 g/H (% Control rating) / PUCCRT 3DC disease control rating, LV activity at 125.1 g/H / PUCCRT 1DP disease control rating, LV activity at 125.1 g/H / PUCCRT 3DC disease control rating, HV activity at 100 ppm / PUCCRT 1DP disease control rating, HV activity at 100 ppm / HV activity at 100 ppm PUCCRT 3DC (disease control rating) / LV activity at 125.1 g/H PUCCRT 1DP (disease control rating) / LV activity at 125.1 g/H PUCCRT 3DC (disease control rating): A: > 80; B: ≤ 80; C: Not Tested; D: No Activity Observed in the Reported Assay. Conditions: for PUCCRT 1DP disease control rating, LV activity at 125.1 g/H / PUCCRT 3DC disease control rating, LV activity at 125.1 g/H / PUCCRT 1DP, LV activity at 125.1 g/H (% Control rating) / PUCCRT 3DC, LV activity at 125.1 g/H (% Control rating): low volume application; for PUCCRT 1DP, LV activity at 125.1 g/H (% Control rating) / PUCCRT 1DP disease control rating, HV activity: 1 Day Protectant; for PUCCRT 3DC, LV activity at 125.1 g/H (% Control rating) / PUCCRT 3DC disease control rating, HV activity: 3 Day Curative; for PUCCRT 1DP disease control rating, HV activity / PUCCRT 3DC disease control rating, HV activity: HV application at 100 ppm, wheat brown rust.

[1] abbreviates: high volume application, 100 ppm, 1 day protectant.
Setting [2] is: high volume application, 100 ppm, 3 day curative.

On to `COc1ccnc(C(=O)NC(C)C(=O)OC(C)C(Oc2ccccc2)c2ccccc2)c1OC(=O)C(C)C` (stereo not shown) [Cmpd 871], for which, in the experiment on Zymoseptoria tritici (1 day protectant), the “SEPTTR 1DP disease control rating, LV activity at 125.1 g/H” value is reported as “A (> 80)”. In the experiment on Zymoseptoria tritici (3 day curative), the “SEPTTR 3DC disease control rating, LV activity at 125.1 g/H” value was “B (≤ 80)”. The “PUCCRT 1DP disease control rating, LV activity at 125.1 g/H” value in the experiment on Puccinia triticina (1 day protectant) was “D”. The “PUCCRT 3DC disease control rating, LV activity at 125.1 g/H” value in the experiment on Puccinia triticina (3 day curative) is on record as “D”.
As for `C=CC[C@@H](OCc1ccccc1)[C@H](C)OC(=O)[C@H](C)NC(=O)c1nccc(OC)c1OCOC(C)=O` [Cmpd 516], in the experiment on Zymoseptoria tritici, the “SEPTTR 1DP, LV activity at 125.1 g/H (% Control rating)” value (shortened to “SEPTTR 1DP … (% Control rating)”) is “B (≤ 80)” and the “SEPTTR 3DC, LV activity at 125.1 g/H (% Control rating)” value (“SEPTTR 3DC … (% Control rating)” below) is on record as “D”. Further, in the experiment with Puccinia triticina, the “PUCCRT 1DP, LV activity at 125.1 g/H (% Control rating)” value (from here on “PUCCRT 1DP … (% Control rating)”) is recorded as “A (> 80)” and the “PUCCRT 3DC, LV activity at 125.1 g/H (% Control rating)” value (shortened to “PUCCRT 3DC … (% Control rating)”) was “A (> 80)”.
Take `COc1ccnc(C(=O)N[C@@H](C)C(=O)O[C@H](C)[C@@H](Oc2ccccc2)c2ccccc2)c1O` [Cmpd 350]: in the experiment on Zymoseptoria tritici, the “SEPTTR 1DP disease control rating, HV activity” value is “D” and the “SEPTTR 3DC disease control rating, HV activity” value is given as “B (≤ 80)”. In addition, in the experiment with Puccinia triticina, the “PUCCRT 1DP disease control rating, HV activity” value is “D” and the “PUCCRT 3DC disease control rating, HV activity” value is reported as “A (> 80)”.
On to `COc1ccnc(C(=O)N[C@@H](C)C(=O)O[C@@H](C)[C@@H](COc2ccccc2)Oc2ccccc2)c1O` [Cmpd 315], for which, in the experiment on Zymoseptoria tritici, the “SEPTTR 1DP disease control rating, HV activity” value is “B (≤ 80)” and the “SEPTTR 3DC disease control rating, HV activity” value was “B (≤ 80)”. In addition, in the experiment with Puccinia triticina, the “PUCCRT 1DP disease control rating, HV activity” value is “B (≤ 80)” and the “PUCCRT 3DC disease control rating, HV activity” value is recorded as “A (> 80)”.
On to `CC[C@H](CC1CCCC1)[C@@H](OCC1CC1)[C@H](C)OC(=O)[C@H](C)NC(=O)c1nccc(OC)c1OCOC(C)=O` [Cmpd 509], for which, in the experiment on Zymoseptoria tritici, the “SEPTTR 1DP … (% Control rating)” value is “B (≤ 80)” and the “SEPTTR 3DC … (% Control rating)” value is reported as “D”. Also, in the experiment with Puccinia triticina, the “PUCCRT 1DP … (% Control rating)” value is reported as “B (≤ 80)” and the “PUCCRT 3DC … (% Control rating)” value was “B (≤ 80)”.
As for `CCC(CCC(C)C)C(Oc1ccccc1)C(C)OC(=O)C(C)NC(=O)c1nccc(OC)c1O` (stereo not shown) [Cmpd 317], in the experiment with Zymoseptoria tritici, the “SEPTTR 1DP disease control rating, HV activity” value is “A (> 80)” and the “SEPTTR 3DC disease control rating, HV activity” value is “B (≤ 80)”. Moreover, in the experiment with Puccinia triticina, the “PUCCRT 1DP disease control rating, HV activity” value is recorded as “A (> 80)” and the “PUCCRT 3DC disease control rating, HV activity” value was “B (≤ 80)”.
Consider `CCC(CC)[C@@H](Oc1ccc(C(F)(F)F)cc1)[C@H](C)OC(=O)[C@@H](NC(=O)c1nccc(OC)c1OCOC(C)=O)C(C)C` [Cmpd 653], for which, in the experiment with Zymoseptoria tritici, the “SEPTTR 1DP … (% Control rating)” value is “D” and the “SEPTTR 3DC … (% Control rating)” value is recorded as “B (≤ 80)”. In addition, in the experiment on Puccinia triticina, the “PUCCRT 1DP … (% Control rating)” value is “A (> 80)” and the “PUCCRT 3DC … (% Control rating)” value is listed as “B (≤ 80)”.
On to `C=CC[C@@H](Oc1cc(F)cc(Cl)c1)[C@H](C)OC(=O)[C@H](C)NC(=O)c1nccc(OC)c1O` [Cmpd 1022], for which the “SEPTTR 1DP disease control rating, HV activity at 100 ppm” value in the experiment with Zymoseptoria tritici (setting [1]) is recorded as “D”. The “SEPTTR 3DC disease control rating, HV activity at 100 ppm” value in the experiment with Zymoseptoria tritici (setting [2]) was “B (≤ 80)”. The “PUCCRT 1DP disease control rating, HV activity at 100 ppm” value with Puccinia triticina (setting [1]) is “B (≤ 80)”. Also, the “PUCCRT 3DC disease control rating, HV activity at 100 ppm” value with Puccinia triticina (setting [2]) was “A (> 80)”.
With `COc1ccnc(C(=O)N[C@@H](C)C(=O)O[C@@H](C)[C@@H](Oc2cccc3ccccc23)C(C)C)c1OCOC(C)=O` [Cmpd 854], the “SEPTTR 1DP disease control rating, LV activity at 125.1 g/H” value in the experiment on Zymoseptoria tritici (1 day protectant) is reported as “B (≤ 80)”. For the same compound, the “SEPTTR 3DC disease control rating, LV activity at 125.1 g/H” value in the experiment with Zymoseptoria tritici (3 day curative) was “A (> 80)”. Moreover, the “PUCCRT 1DP disease control rating, LV activity at 125.1 g/H” value in the experiment with Puccinia triticina (1 day protectant) is listed as “A (> 80)”. Besides, the “PUCCRT 3DC disease control rating, LV activity at 125.1 g/H” value in the experiment with Puccinia triticina (3 day curative) was “B (≤ 80)”.
Take `CCC(CC)[C@@H](Oc1ccc(F)cc1)[C@H](C)OC(=O)[C@@H](NC(=O)c1nccc(OC)c1OC(C)=O)C(C)C` [Cmpd 657]: in the experiment with Zymoseptoria tritici, the “SEPTTR 1DP … (% Control rating)” value is “A (> 80)” and the “SEPTTR 3DC … (% Control rating)” value is reported as “B (≤ 80)”. In the experiment on Puccinia triticina, the “PUCCRT 1DP … (% Control rating)” value is reported as “A (> 80)” and the “PUCCRT 3DC … (% Control rating)” value is “B (≤ 80)”.

The values above are taken from patent US20180000085A1, “USE OF PICOLINAMIDE COMPOUNDS WITH FUNGICIDAL ACTIVITY” (DOW AGROSCIENCES LLC, priority 2014, published 2018).
